Target: ATP-sensitive inward rectifier potassium channel 1 (Homo sapiens) (UniProt P48048)
Assay: PubChem AID 1922
Conditions: HEK-293 ROMK whole-cell patch clamp, % block, stronger effect = higher value

ATP-sensitive inward rectifier potassium channel 1 (Homo sapiens), sequence (P48048 whole entry, looked up): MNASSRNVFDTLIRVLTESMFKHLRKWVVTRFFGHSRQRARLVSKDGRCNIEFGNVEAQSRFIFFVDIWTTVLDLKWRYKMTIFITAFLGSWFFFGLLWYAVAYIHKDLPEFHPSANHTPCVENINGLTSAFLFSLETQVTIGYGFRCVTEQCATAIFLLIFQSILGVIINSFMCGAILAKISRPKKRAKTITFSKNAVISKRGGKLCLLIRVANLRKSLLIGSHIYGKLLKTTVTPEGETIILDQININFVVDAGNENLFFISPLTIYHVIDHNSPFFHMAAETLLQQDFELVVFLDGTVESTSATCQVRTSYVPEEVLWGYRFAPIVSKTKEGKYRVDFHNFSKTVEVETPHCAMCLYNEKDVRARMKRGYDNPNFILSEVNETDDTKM

| Compound | inhibition (ROMK block, at 1 µM) [%] | inhibition (ROMK block, at 3 µM) [%] | inhibition (at 10 µM) [%] |
| --- | --- | --- | --- |
| O=[N+]([O-])c1ccc(CN2CCOCCOCCN(Cc3ccc([N+](=O)[O-])cc3)CCOCC2)cc1 | 63.4 | 78.2 | 95.3 |
| O=[N+]([O-])c1ccc2nc(COCc3nc4ccc([N+](=O)[O-])cc4[nH]3)[nH]c2c1 | 62.6 | 78.3 | 88.7 |

— PubChem BioAssay AID1922 (Vanderbilt High Throughput Screening Facility, 2009)
